Laboratory results from BindingDB's records for PubMed 37738648 (Astrazeneca, 2023).

How the values were obtained:
[1] = molecular target: T1, Tyrosine-protein kinase JAK3 (Homo sapiens, UniProt P52333); experiment: Inhibition of N-terminal GST-tagged human recombinant JAK3 (781 to 1124 residues) expressed in insect cells using 5FAM-GEEPLYWSFPAKKK-NH2 peptide as substrate incubated for 10 mins measured after 90 mins in presence of ATP by caliper mobility shift assay
T1 sequence (P52333 whole entry): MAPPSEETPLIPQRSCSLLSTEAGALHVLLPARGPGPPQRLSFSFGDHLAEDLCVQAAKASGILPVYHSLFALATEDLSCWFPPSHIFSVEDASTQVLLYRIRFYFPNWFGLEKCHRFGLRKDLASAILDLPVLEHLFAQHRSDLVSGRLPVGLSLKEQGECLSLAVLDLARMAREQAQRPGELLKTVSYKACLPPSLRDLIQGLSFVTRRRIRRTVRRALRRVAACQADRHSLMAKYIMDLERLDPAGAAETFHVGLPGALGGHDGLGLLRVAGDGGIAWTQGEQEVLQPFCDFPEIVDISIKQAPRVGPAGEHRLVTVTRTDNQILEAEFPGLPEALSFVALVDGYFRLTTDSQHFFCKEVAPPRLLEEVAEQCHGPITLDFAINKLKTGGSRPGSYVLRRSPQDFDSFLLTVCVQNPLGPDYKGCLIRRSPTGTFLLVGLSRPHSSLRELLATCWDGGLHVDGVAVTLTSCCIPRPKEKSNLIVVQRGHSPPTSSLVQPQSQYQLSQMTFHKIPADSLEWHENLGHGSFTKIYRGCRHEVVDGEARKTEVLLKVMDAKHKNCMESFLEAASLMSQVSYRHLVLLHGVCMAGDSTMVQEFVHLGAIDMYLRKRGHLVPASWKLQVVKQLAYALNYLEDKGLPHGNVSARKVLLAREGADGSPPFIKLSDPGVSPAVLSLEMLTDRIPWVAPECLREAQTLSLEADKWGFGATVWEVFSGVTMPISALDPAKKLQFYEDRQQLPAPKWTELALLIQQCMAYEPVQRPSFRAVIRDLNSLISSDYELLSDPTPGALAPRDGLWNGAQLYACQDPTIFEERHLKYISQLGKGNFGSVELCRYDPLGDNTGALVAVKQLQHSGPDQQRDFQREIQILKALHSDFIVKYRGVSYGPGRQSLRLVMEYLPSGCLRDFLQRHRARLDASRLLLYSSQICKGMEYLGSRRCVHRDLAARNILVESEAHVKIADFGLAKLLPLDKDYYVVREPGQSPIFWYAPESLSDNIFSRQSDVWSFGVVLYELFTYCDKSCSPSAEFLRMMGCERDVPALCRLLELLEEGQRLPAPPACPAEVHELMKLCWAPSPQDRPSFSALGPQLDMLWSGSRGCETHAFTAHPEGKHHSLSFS

[2] = molecular target: Tyrosine-protein kinase JAK1 (Homo sapiens, UniProt P23458); experiment: Inhibition of N-terminal GST-tagged human recombinant JAK1 (866 to 1154 residues) expressed in insect cells using FITC-C6-KKHTDDGYMPMSPGVA-NH peptide as substrate incubated for 10 mins measured after 90 mins in presence of ATP by caliper mobility shift assay
Chain of Tyrosine-protein kinase JAK1 (P23458 whole entry, the tested form may be a part): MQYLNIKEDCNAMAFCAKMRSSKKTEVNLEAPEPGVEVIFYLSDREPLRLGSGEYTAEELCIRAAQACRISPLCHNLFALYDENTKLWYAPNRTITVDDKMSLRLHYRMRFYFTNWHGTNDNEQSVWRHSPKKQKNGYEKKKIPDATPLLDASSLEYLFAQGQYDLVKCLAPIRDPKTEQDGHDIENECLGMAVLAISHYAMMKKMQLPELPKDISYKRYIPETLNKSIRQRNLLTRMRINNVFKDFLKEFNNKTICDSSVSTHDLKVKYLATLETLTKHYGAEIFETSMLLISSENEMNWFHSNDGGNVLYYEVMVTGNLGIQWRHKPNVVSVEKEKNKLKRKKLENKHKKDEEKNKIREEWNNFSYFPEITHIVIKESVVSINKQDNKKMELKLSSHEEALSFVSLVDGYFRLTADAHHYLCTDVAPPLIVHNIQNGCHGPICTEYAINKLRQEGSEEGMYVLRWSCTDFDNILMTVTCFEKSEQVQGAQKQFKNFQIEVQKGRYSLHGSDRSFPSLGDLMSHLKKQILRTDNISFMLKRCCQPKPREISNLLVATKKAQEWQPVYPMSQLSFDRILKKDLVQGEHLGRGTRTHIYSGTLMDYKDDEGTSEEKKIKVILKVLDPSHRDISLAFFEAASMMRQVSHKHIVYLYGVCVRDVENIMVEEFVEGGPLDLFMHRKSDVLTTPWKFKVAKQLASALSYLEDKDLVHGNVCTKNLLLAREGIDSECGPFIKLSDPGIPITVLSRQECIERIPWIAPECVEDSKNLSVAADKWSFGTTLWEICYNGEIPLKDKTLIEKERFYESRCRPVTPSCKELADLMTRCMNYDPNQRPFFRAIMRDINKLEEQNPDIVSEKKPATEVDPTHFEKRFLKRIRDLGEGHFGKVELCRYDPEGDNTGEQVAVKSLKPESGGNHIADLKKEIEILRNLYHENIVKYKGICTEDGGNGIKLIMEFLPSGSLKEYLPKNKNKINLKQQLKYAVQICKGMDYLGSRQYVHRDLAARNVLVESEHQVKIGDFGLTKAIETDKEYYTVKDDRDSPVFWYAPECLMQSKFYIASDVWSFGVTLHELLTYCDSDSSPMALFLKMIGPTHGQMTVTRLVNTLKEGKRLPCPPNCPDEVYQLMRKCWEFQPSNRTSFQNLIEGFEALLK

SMILES	IC50 [1] [µM]	IC50 [2] [µM]
Cc1cnc(Nc2cccc(S(C)(=O)=O)c2F)nc1-c1c[nH]c2c(NC(=O)[C@@H](C)N3CCN(C)CC3)cccc12 [US10961228, Example 2]	> 30	–
CC[C@H](C(=O)Nc1cccc2c(-c3nc(Nc4cccc(S(C)(=O)=O)c4F)ncc3C)c[nH]c12)N1CCN(C)CC1 [US10961228, Example 14]	> 30	< 0.003
COC[C@H](C(=O)Nc1cccc2c(-c3nc(Nc4cccc(S(C)(=O)=O)c4F)ncc3C)c[nH]c12)N1CCN(C)CC1 [US10961228, Example 16]	> 30	< 0.003
COC[C@H](C(=O)Nc1cccc2c(-c3nc(Nc4cccc(S(C)(=O)=O)c4F)ncc3F)c[nH]c12)N1CCN(C)CC1 [US10961228, Example 35]	> 30	< 0.003
CC[C@H](C(=O)Nc1cccc2c(-c3nc(Nc4cccc(S(C)(=O)=O)c4F)ncc3F)c[nH]c12)N1CCN(C)CC1 [US10961228, Example 38]	> 30	–
